The values that follow come from US7148215B2, “Chemical compounds” (Aventis Pharma S.A., priority 2001, dated 2006).

Counter-ions that a name gives are not always drawn.

Broadly, the melting point is the temperature of the solid-liquid transition. In general, IC50 refers to the point on the concentration scale where inhibition reaches its midpoint.

System in one data set: not given
Test: not given
Settings: not given
`NC(=O)c1c(Cl)c(-c2ccccc2)n2c1CN(S(=O)(=O)Nc1ccccc1)CC2` returned a melting point of 207 to 208 °C.
Consider `NC(=O)c1c(Cl)c(-c2ccccc2)n2c1CN(C(=O)Cc1ccccc1O)CC2`, for which the melting point fell in the range of 176 to 180 °C.
The same measure, in the same setting: for `Cc1c(Cl)c(C(N)=O)c2n1CCN(C(=O)Nc1cccc(F)c1)C2` the value was 229 to 231 °C; for `COc1ccc(NC(=S)N2CCn3c(c(C(N)=O)c(Cl)c3-c3ccccc3)C2)cc1`, 176 to 178 °C.
Regarding `CS(=O)(=O)N1CCC(c2c(C#N)c(C(N)=O)c3n2CCN(C(=O)Nc2ccc(F)cc2)C3)CC1`, the melting point was in the range of 177 to 180 °C.
In turn, `N#Cc1c(C(N)=O)c2n(c1C1CC1)CCN(C(=O)Nc1ccc(C(=O)NCCN3CCOCC3)cc1)C2` had a melting point of 197 to 199 °C.
With `Cc1ccc(-c2c(Cl)c(C(N)=O)c3n2CCN(C(=O)Nc2ccc(F)cc2)C3)cn1`, the melting point is 235 to 238 °C (dec.).
The same measure, in the same setting: for `N#Cc1c(C(N)=O)c2n(c1C(F)(F)F)CCN(C(=O)Nc1ccc(C(F)(F)F)cc1)C2` the value was 243 to 246 °C (dec.); for `NC(=O)c1c(Cl)c(-c2ccccc2)n2c1CN(C(=O)CCC1CCCCC1)CC2`, 181 to 182 °C; for `N#Cc1c(C(N)=O)c2n(c1C1CC1)CCN(C(=O)Nc1ccc(C(F)(F)F)nc1)C2`, 149 to 153 °C.
Still for that read-out and setting: for `N#Cc1ccc(NC(=O)N2CCn3c(c(C(N)=O)c(Cl)c3C3CC3)C2)cc1` the value was 196 to 198 °C; for `NC(=O)c1c(Cl)c(C2CC2)n2c1CN(C(=O)Nc1ccc(F)cc1)CC2` [Example 16(a)], 230 to 231 °C.
In turn, `NC(=O)c1c(Cl)c(-c2ccccc2)n2c1CN(S(=O)(=O)c1cccs1)CC2` displayed a melting point of 240 to 242 °C.
Same read-out and setting: for `N#Cc1c(C(N)=O)c2n(c1C1CC1)CCN(S(=O)(=O)c1ccc(C(F)(F)F)cc1)C2` the value was 253 to 256 °C; for `NC(=O)c1c(Cl)c(-c2ccccc2)n2c1CN(C(=O)Nc1cccnc1)CC2`, 261 to 263 °C; for `NC(=O)c1c(Cl)c(C2CC2)n2c1CN(C(=O)Nc1ccc(F)cc1)CC2` [Example 3], 266 to 267 °C.
With `COc1ccc(NC(=O)N2CCn3c(-c4ccccc4)cc(C(N)=O)c3C2)cc1`, the melting point lay in the range of 170 to 173 °C.
Regarding `N#Cc1ccc(NC(=O)N2CCn3c(c(C(N)=O)c(C#N)c3-c3cccnc3)C2)cc1`, the melting point fell in the range of 291 to 296 °C.
In the case of `COc1ccc(N/C(=N\C#N)N2CCn3c(c(C(N)=O)c(Cl)c3-c3ccccc3)C2)cc1`, the melting point came to 170 °C.
In turn, `NC(=O)c1c(Cl)cn2c1CN(C(=O)Nc1ccc(-c3ccccn3)s1)CC2` gave a melting point of 249 to 250 °C.
In turn, `CS(=O)(=O)N1CCC(c2c(C#N)c(C(N)=O)c3n2CCN(C(=O)Nc2ccc(C#N)cc2)C3)CC1` had a melting point of 218 to 221 °C.
Still for that read-out and setting: for `N#Cc1c(C(N)=O)c2n(c1-c1ccccc1)CCN(C(=O)Nc1cccc(F)c1)C2` the value was 219 to 220 °C; for `NC(=O)c1c(Cl)cn2c1CN(C(=O)Nc1ccc(F)cc1)CC2`, 229 to 231 °C; for `NC(=O)c1c(Cl)c(-c2cccnc2)n2c1CN(S(=O)(=O)c1ccc(C(F)(F)F)cc1)CC2`, 205 to 206 °C.
In the case of `N#Cc1c(C(N)=O)c2n(c1-c1ccccc1)CCN(C(=O)Nc1ccc(C(=O)O)cc1)C2`, the melting point was 286 to 288 °C.
Take `N#Cc1c(C(N)=O)c2n(c1C1CCOCC1)CCN(C(=O)Nc1ccc3ncccc3c1)C2`: the melting point is 296 to 298 °C (dec.).
In the case of `NC(=O)c1c(Cl)c(C2CC2)n2c1CNCC2` (as salt: trifluoroacetic acid salt), the melting point was in the range of 237 to 239 °C.
`Cc1ccc(-c2c(Cl)c(C(N)=O)c3n2CCN(C(=O)Nc2ccc4ncccc4c2)C3)cn1` displayed a melting point of 221 to 222 °C.
On to `NC(=O)c1c(Cl)cn2c1CN(S(=O)(=O)c1ccc(-c3ccccn3)s1)CC2`, for which the melting point was 213 to 214 °C.
Consider `N#Cc1c(C(N)=O)c2n(c1-c1cccnc1)CCN(C(=O)Nc1ccc(F)cc1)C2`, for which the melting point lay within 275 to 279 °C.
`COc1ccc(NC(=O)N2CCn3c(c(C(N)=O)c(Cl)c3-c3ccccc3)C2)cc1` returned a melting point of 246 to 248 °C.
The molecule `NC(=O)c1c(Cl)c(-c2ccccc2)n2c1CN(C(=O)Oc1ccccc1)CC2` came in with a melting point of 196 to 198 °C.
In turn, `N#Cc1c(C(N)=O)c2n(c1C1CC1)CCN(C(=O)Nc1ccc(F)cc1)C2` [Example 9(a), 7-Cyano-6-cyclopropyl-3,4-dihydro-1H-pyrrolo[1,2-a]pyrazine-2,8-dicarboxylic acid 8-amide 2-[(4-fluorophenyl)amide]] returned a melting point of 232 to 234 °C.
`N#Cc1c(C(N)=O)c2n(c1C1CCOCC1)CCN(C(=O)Nc1cccc(C(F)(F)F)c1)C2`: the melting point was 200 to 202 °C (dec.).

The subject of a further data set is rat cerebellar granule neurons. As to the kind of experiment: Effect of JNK inhibitors on LY294002-induced cytotoxicity in cerebellar granule cells (MTT). It is filed as cell-based. The note with it: 3–100 μM added to cells cultured in high potassium medium; FIG. 1. The method, then:
7. Effect of JNK Inhibitors on Cytotoxicity in Cerebellar Granule Cells
LY294002 is a reversible inhibitor of PI3K and activates JNKs with subsequent cell death. We have investigated the ability of the JNK inhibitors to protect against LY294002-induced cell death in a cerebellar granule cell preparation.
Primary cerebellar cell cultures were prepared from 7-day-old Sprague-Dawley rats. Cerebella were carefully collected, dissected free of meninges and cut into 5–7 parts. Tissues were gently mechanically dissociated after digestion with VERSENE (5 minutes, 37° C.). The cells were seed onto 96-well plates pre-coated with poly-D-lysine (Becton-Dickinson) at a final density of 10^5 cells per well. Cultures were maintained at 37° C. in a humidified atmosphere with 5% CO2 and used after the 9th day of culture in DMEM medium complemented with 5% fetal calf serum, 5% horse serum and 30 mM potassium chloride in the presence of an anti-mitotic (10 μM cytosine arabinoside). The drugs were directly added to the culture at the indicated concentrations for 24 hours. Neuronal viability was assessed quantitatively by the colorimetric measurement of Mosmann or MTT assay (1983, J. Immunol. Methods, 65, 55–63). Each condition was tested in sextuplicate or triplicate and the mean values obtained analyzed statistically by one-way ANOVA, followed by Dunnett's multiple comparison test. […]
Regarding `O=c1cc(N2CCOCC2)oc2c(-c3ccccc3)cccc12` [LY294002, reference compound], the “neurotoxic effect on cerebellar granule neurons” value was “induced neuronal death”.

Staying with this data set, now noted: Neuron; LY294002 30 μM; rat cerebellar granule cells after 9 days of culture; 24 hours; MTT; FIG. 2; read-out: protection against LY294002-induced toxicity, IC50.
On to `N#Cc1c(C(N)=O)c2n(c1C1CC1)CCN(C(=O)Nc1ccc(F)cc1)C2` [Example 9(a), 7-Cyano-6-cyclopropyl-3,4-dihydro-1H-pyrrolo[1,2-a]pyrazine-2,8-dicarboxylic acid 8-amide 2-[(4-fluorophenyl)amide]], for which the 50% inhibitory concentration (IC50) came out at 7 µM.
